Laboratory results published in patent publication US11498909B2, “Compound acting as antibiotics” (KBP BIOSCIENCES CO., LTD., priority 2018, dated 2022).
Values after ≈ are worked out from the molar mass of the structure shown.

Key:
Pseudomonas aeruginosa = test: In vitro antibacterial activity, agar dilution MIC (Experiment 1); assay type: cell-based; conditions: agar dilution (Table 3); for MIC50: read-out: MIC50; for MIC90: read-out: MIC90
Method: Tested strains: all the clinically separated strains below were purchased from public facilities.
Escherichia coli ATCC25922, Pseudomonas aeruginosa ATCC27853, Klebsiella pneumoniae ATCC700603, and the like.
Tested Samples: Imipenem, Ceftazidime: Commercial Products, the Following Experiments were Carried Out According to the Content of an Effective Ingredient in Each Commercial Product;
The compounds of the present invention, their chemical names, and preparation methods are shown in the preparation example of each compound.
Experiment method: Agar dilution method, refer to National Committee for Clinical Laboratory Standards. 2006. Methods for Dilution Antimicrobial Susceptibility Tests for Bacteria That Grow Aerobically; Approved Standard—Seventh Edition M7-A7, Vol 26, No. 2, 2006, to determine the MIC of the compound. MIC represents the minimum inhibitory concentration.

[1] = Pharmacokinetics (PK) determination in SD rats (Experiment 4); assay type: in vivo; conditions: plasma; for Cl_obs / Vz_obs / t1/2z / λ_z: IV 2 mg/kg; for AUC(0-t) / AUC(0-inf): Sprague-Dawley (SD), rat, iv, 2 mg/kg; for AUC(0-inf): read-out: AUCINF_obs
Method: The compound of the present invention, self-prepared and dissolved in a suitable solvent.
Instrument and equipment: API4000 LC-MS/MS
Chromatographic column: Waters XBridge C18(2.1×50 mm, […])
Rat blood collection: Animals were fixed. The animal's tail was heated with a water bathtub 10 minutes before each time point. About 200 μL of the blood was collected through the caudal vein. After the blood collection, the blood was placed in an anticoagulation tube containing heparin sodium. The blood samples were centrifuged at 8000 rpm for 6 minutes at 4° C. to obtain plasma samples. The plasma must be prepared within 30 minutes after the blood collection. The plasma was stored in a refrigerator at −80° C. before the test.
(1) Test samples were removed from the refrigerator (−80° C.), naturally thawed at room temperature, and then vortexed for 5 minutes;
(2) 20 μL sample was precisely pipetted to a 1.5 mL centrifuge tube;
(3) 200 μL of the internal standard solution was added;
(4) The mixture was vortexed for 5 minutes and centrifuged for 5 minutes (12000 revolutions per minute);
(5) 100 μL of the supernate was precisely pipetted, 100 μL of water was added, the mixture was vortexed for 5 minutes, and the sample was sent to LC-MS/MS for analysis.
The results of the concentrations of the test samples (plasma samples) were output with Analyst 1.6.1 of AB Corporation. The meaning value, the standard deviation, the coefficient of variation, and other parameters (not necessary to calculate the parameter that can be directly output from Analyst 1.6.1) were calculated with Microsoft Excel, and the PK parameter is calculated with Pharsight Phoenix 6.1 software.

Row | SMILES | MIC50 (Pseudomonas aeruginosa) [µg/mL] | MIC90 (Pseudomonas aeruginosa) [µg/mL] | further results
1 | CC(O)C(NC(=O)c1ccc(/C=C/C=C/c2ccco2)cc1)C(=O)NO (racemic) [Compound 25] | 1 (≈ 2.81 µM) | > 16 | 
2 | CC(C)(O/N=C(\C(=O)N[C@@H]1C(=O)N2C(C(=O)[O-])=C(C[n+]3ccccc3)CS[C@H]12)c1csc(N)n1)C(=O)O [Ceftazidime, reference compound] | 2 (≈ 3.66 µM) | > 16 | 
3 | C[C@@H](O)[C@H](NC(=O)c1ccc(/C=C/C=C/c2ccco2)cc1)C(=O)NO [Compound 1, 4-((1E,3E)-4-(furan-2-yl)buta-1,3-dienyl)-N-((2S,3R)-3-hydroxy-1-(hydroxyamino)-1-oxobutan-2-yl)benzamide] | 1 (≈ 2.81 µM) | > 16 | 
4 | C[C@@H](O)[C@H](NC(=O)c1ccc(/C=C/C=C/c2ccc(CO)o2)cc1)C(=O)NO [Compound 3, N-((2S,3R)-3-hydroxy-1-(hydroxamino)-1-oxobutan-2-yl)-4-((1E,3E)-4-(5-(hydroxymethyl)furan-2-yl)buta-1,3-dienyl)benzamide] | 2 (≈ 5.18 µM) | 16 (≈ 41.4 µM) | 
5 | C[C@@H](O)[C@H](NC(=O)c1ccc(C#CC#Cc2ccc(CNCCCN)o2)cc1)C(=O)NO [Compound 12, 4-((5-((3-aminopropylamino)methyl)furan-2-yl)buta-1,3-diynyl)-N-((2S,3R)-3-hydroxy-1-(hydroxyamino)-1-oxobutan-2-yl)benzamide] | 2 (≈ 4.56 µM) | 4 (≈ 9.12 µM) | 
6 | C[C@@H](O)[C@H](NC(=O)c1ccc(C#CC#Cc2oc(CO)cc2-c2ccccc2)cc1)C(=O)NO [Compound 17, N-((2S,3R)-3-hydroxy-1-(hydroxyamino)-1-oxobutan-2-yl)-4-((5-(hydroxymethyl)-3-phenylfuran-2-yl)buta-1,3-diynyl)benzamide] | 8 (≈ 17.4 µM) | > 16 | 
7 | C[C@@H](O)[C@H](NC(=O)c1ccc(C#CC#Cc2ccc(CN3CCNCC3)o2)cc1)C(=O)NO [Compound 24, N-((2S,3R)-3-hydroxy-1-(hydroxyamino)-1-oxobutan-2-yl)-4-((5-(piperazin-1-ylmethyl)furan-2-yl)buta-1,3-diynyl)benzamide] | 4 (≈ 8.88 µM) | > 16 | 
8 | C[C@@H](O)[C@H](NC(=O)c1ccc(C(=O)N/N=C/c2ccco2)cc1)C(=O)NO [Compound 26, 4-(2-(furan-2-methylene)hydrazinecarbonyl)-N-((2S,3R)-3-hydroxy-1-(hydroxyamino)-1-oxobutan-2-yl)-benzamide] |  | 4 (≈ 10.7 µM) | 
9 | C[C@@H](O)[C@H](NC(=O)c1ccc(C#CC#Cc2ccc(C(N)=O)o2)cc1)C(=O)NO [Compound 27] |  | 4 (≈ 10.1 µM) | 
10 | C[C@@H](O)[C@H](NC(=O)c1ccc(C#CC#Cc2ccc(C(=O)N(C)C)o2)cc1)C(=O)NO [Compound 29] | 1 (≈ 2.36 µM) | 4 (≈ 9.45 µM) | 
11 | C[C@@H](O)[C@H](NC(=O)c1ccc(/C=C/C=C/c2ccc(CO)o2)nc1)C(=O)NO [Compound 32] |  |  | Cl_obs [1]: 96.7 ± 8.83 mL/min/kg; Vz_obs [1]: 4.24 ± 1.65 L/kg; t1/2z [1]: 30.4 ± 10.8 min; λ_z [1]: 1.48 ± 0.46 h⁻¹; AUC(0-t) [1]: 344 ± 33.7 ng·h/mL; AUC(0-inf) [1]: 347 ± 32.7 ng·h/mL
12 | C[C@@H](O)[C@H](NC(=O)c1ccc(C#CC#Cc2ccnn2C)cc1)C(=O)NO [Compound 34, N-((2S,3R)-3-hydroxy-1-(hydroxamino)-1-oxobutan-2-yl)-4-((1-methyl-1H-pyrazol-5-yl)buta-1,3-diynyl)benzamide] | 4 (≈ 10.9 µM) | > 16 | 
13 | Cn1nccc1-c1ccc(C#Cc2ccc(-c3ccn(CCC(C)(C(=O)NO)S(C)(=O)=O)c(=O)c3)cc2)cc1 (centres unmarked) [Compound 38, N-hydroxy-2-methyl-4-(4-(4-((4-(1-methyl-1H-pyrazol-5-yl)phenyl)ethynyl)phenyl)-2-oxopyridin-1(2H)-yl)-2-(methylsulfonyl)butanamide] |  |  | Cl_obs [1]: 16.8 ± 1.5 mL/min/kg; Vz_obs [1]: 1.81 ± 0.17 L/kg; t1/2z [1]: 75 ± 5.4 min; λ_z [1]: 0.56 ± 0.04 h⁻¹; AUC(0-t) [1]: 1940 ± 168 ng·h/mL; AUC(0-inf) [1]: 1990 ± 176 ng·h/mL
